Measured values: patent US20260297042A1, “BIARYLAMIDE DERIVATIVES AND THEIR USE AS PKMYT1 INHIBITORS” (CANCER RESEARCH TECHNOLOGY LIMITED, priority 2023, published 2026)

What was measured:
Human PKMYT1 = molecular target: T1, Human PKMYT1 (Homo sapiens, UniProt Q99640); experiment: PKMYT1 biochemical ADP-Glo enzymatic assay; conditions: ADP-Glo
T1 construct: Human PKMYT1 75-362 was cloned as a TEV cleavable 6xHis fusion; 6xHis (TEV cleavable) (cleaved yes); made in house; host or cells: bacterial cells
T1 sequence (Q99640 75-362): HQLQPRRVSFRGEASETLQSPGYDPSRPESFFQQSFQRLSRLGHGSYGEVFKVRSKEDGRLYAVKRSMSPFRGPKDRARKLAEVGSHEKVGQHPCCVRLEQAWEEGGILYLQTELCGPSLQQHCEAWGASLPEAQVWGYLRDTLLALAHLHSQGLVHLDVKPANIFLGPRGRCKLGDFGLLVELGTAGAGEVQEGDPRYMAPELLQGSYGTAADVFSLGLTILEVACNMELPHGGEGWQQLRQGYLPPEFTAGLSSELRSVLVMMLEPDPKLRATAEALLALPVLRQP
In short: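 IC50 values come from 10-point 3-fold series, with replicates required within 3-fold and r2 >0.9. ADP formed by PKMYT1 intrinsic ATPase (500 uM ATP, 60 min, 26° C.) was quantified by ADP-Glo luminescence. The enzyme was the TEV-cleaved kinase domain 75-362 at 15 nM, in HEPES pH 7.5 buffer.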

OVCAR 3 cells = experiment: Cancer cell line proliferation assay, ATP-based cell viability (Cell Titre Glow), OVCAR 3 (CCNE1-amplified); conditions: KYSE30 (normal CCNE1) GI50 vs. OVCAR 3 (CCNE1-amplified) GI50
Experimental: (§1) Cancer cell lines with either normal (KYSE-30) or amplified CCNE1 expression (OVCAR 3 —ovarian cancer) were evaluated for their sensitivity to PKMYT1 inhibitors using Cell Titre Glow assay (Promega G7573) as endpoint to assess cell proliferation. The luminescence signal was read on a PHERAStar FS microplate reader (BMG Labtech). Data analysis was performed using Microsoft Excel® and Gl50 (concentration that achieves 50% cell growth proliferation inhibition) estimates generated with GraphPad Prism v9.

WEE1 = molecular target: T2, WEE1 (Homo sapiens, UniProt P30291); experiment: Selectivity versus WEE1 assay (ADP-Glo enzymatic assay); assay type: biochemical; conditions: for IC50: ADP-Glo; for PKMYT1 vs. WEE1 selectivity: fold difference in selectivity for PKMYT1 over WEE1
T2 construct: purchased Thermo Fisher PR7373A
T2 sequence (P30291 whole entry): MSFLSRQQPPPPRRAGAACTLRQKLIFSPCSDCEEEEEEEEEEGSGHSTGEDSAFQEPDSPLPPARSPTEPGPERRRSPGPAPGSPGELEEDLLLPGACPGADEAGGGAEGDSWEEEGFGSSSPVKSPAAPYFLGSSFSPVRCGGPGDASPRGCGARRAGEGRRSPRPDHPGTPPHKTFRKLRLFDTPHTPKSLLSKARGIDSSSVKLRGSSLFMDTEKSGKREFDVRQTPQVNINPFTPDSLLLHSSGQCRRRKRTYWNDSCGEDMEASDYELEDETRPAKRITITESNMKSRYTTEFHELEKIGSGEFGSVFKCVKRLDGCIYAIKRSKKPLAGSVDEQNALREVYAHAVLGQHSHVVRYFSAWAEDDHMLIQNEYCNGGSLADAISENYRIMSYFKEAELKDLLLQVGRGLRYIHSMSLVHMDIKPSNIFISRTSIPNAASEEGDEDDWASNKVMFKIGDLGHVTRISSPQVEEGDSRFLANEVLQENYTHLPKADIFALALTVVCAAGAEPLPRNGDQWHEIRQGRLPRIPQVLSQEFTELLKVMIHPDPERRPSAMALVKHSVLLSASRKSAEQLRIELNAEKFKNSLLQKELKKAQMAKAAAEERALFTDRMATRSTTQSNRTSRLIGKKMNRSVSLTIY
In short: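 ADP-Glo luminescent read-out after a 60-min, 26 °C kinase reaction of 15 nM WEE1 with 30 µM ATP, in HEPES pH 7.5 buffer containing MgCl2, EGTA, Brij-35 and 1% DMSO. IC50 accepted only when replicate values agree within 3-fold and curve fit r2 exceeds 0.9.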

KYSE-30 cells = experiment: Cancer cell line proliferation assay, ATP-based cell viability (Cell Titre Glow), KYSE-30 (normal CCNE1); conditions: Homo sapiens, KYSE-30 cells (normal CCNE1), concentration that achieves 50% cell growth proliferation inhibition, read-out: KYSE30 Gl50
Experimental: as §1

[1] = 15 nM PKMYT1 kinase domain, 500 µM ATP, 60 minutes at 26° C., banded
[2] = 15 nM WEE1, 60 minutes at 26° C., banded
[3] = banded, ">N" = at least in this band but could be higher
[4] = PKMYT1 kinase domain 15 nM, banded values

| SMILES | IC50 (Human PKMYT1; [1]) | Selectivity ratio KYSE30 Gl50 vs. OVCAR3 Gl50 (OVCAR 3 cells) | IC50 (WEE1; [2]) | PKMYT1 vs. WEE1 selectivity (WEE1; [3]) | GI50 (KYSE-30 cells) | IC50 (Human PKMYT1; [4]) | IC50 (WEE1; WEE1 15 nM, banded values) | PKMYT1 vs. WEE1 selectivity (WEE1; banded) |
| --- | --- | --- | --- | --- | --- | --- | --- | --- |
| Cc1ccc(O)c(C)c1NC(=O)c1cnc(Nc2cc(C(F)(F)F)nc(NCCC(C)(C)C)n2)s1 [BAA-322, 2-((2-((3,3-dimethylbutyl)amino)-6-(trifluoromethyl)pyrimidin-4-yl)amino)-N-(3-hydroxy-2,6-dimethylphenyl)thiazole-5-carboxamide] | 50 to 1000 nM | Y (>20 fold) | > 11000 nM | X (100-<1000 fold) | 500 to 5000 nM |  |  |  |
| Cc1ccc(NS(=O)(=O)C(C)(C)C)nc1Nc1ncc(C(=O)Nc2c(C)ccc(O)c2C)s1.Cl [BAA-335, 2-((6-((1,1-dimethylethyl)sulfonamido)-3-methylpyridin-2-yl)amino)-N-(3-hydroxy-2,6-dimethylphenyl)thiazole-5-carboxamide hydrochloride] | < 50 nM | Y (>20 fold) | > 11000 nM | Y (1000-5000 fold) | 500 to 5000 nM |  |  |  |
| Cc1ccc(O)c(C)c1NC(=O)c1cnc(Nc2cc(-c3ccc(F)cc3)ccn2)s1 [BAA-294, 2-((4-(4-fluorophenyl)pyridin-2-yl)amino)-N-(3-hydroxy-2,6-dimethylphenyl)thiazole-5-carboxamide] | 50 to 1000 nM | Y (>20 fold) | > 11000 nM | X (100-<1000 fold) | > 5000 nM |  |  |  |
| CCN(CC)C(=O)C(C)n1ccc(Nc2ncc(C(=O)Nc3c(C)ccc(O)c3C)s2)n1 (centres unmarked) [BAA-512, 2-((1-(1-(diethylamino)-1-oxopropan-2-yl)-1H-pyrazol-3-yl)amino)-N-(3-hydroxy-2,6-dimethylphenyl)thiazole-5-carboxamide] |  | Y (>20 fold) |  |  | > 5000 nM | < 50 nM | > 11000 nM | Y (1000-5000 fold) |
| Cc1ccc(O)c(C)c1NC(=O)c1cnc(Nc2nn(C)c(C)c2C)s1 [BAA-128, N-(3-hydroxy-2,6-dimethyl-phenyl)-2-[(1,4,5-trimethylpyrazol-3-yl)amino]thiazole-5-carboxamide] | 50 to 1000 nM | Y (>20 fold) | 1000 to 11000 nM | X (100-<1000 fold) | > 5000 nM |  |  |  |
| Cc1ccc(O)c(C)c1NC(=O)c1cnc(Nc2nn(C)cc2Cl)s1 [BAA-541, 2-((4-chloro-1-methyl-1H-pyrazol-3-yl)amino)-N-(3-hydroxy-2,6-dimethylphenyl)thiazole-5-carboxamide] |  | Y (>20 fold) |  |  | > 5000 nM | < 50 nM | 1000 to 11000 nM | X (100-<1000 fold) |
| Cc1cn(-c2cc(Cl)cnc2F)nc1Nc1ncc(C(=O)Nc2c(C)ccc(O)c2C)s1 [BAA-377, 2-((1-(5-chloro-2-fluoropyridin-3-yl)-4-methyl-1H-pyrazol-3-yl)amino)-N-(3-hydroxy-2,6-dimethylphenyl)thiazole-5-carboxamide] | 50 to 1000 nM | X (3-20 fold) | 1000 to 11000 nM | W (10-<100 fold) | 500 to 5000 nM |  |  |  |
| Cc1cc(Nc2ncc(C(=O)Nc3c(C)ccc(O)c3C)s2)nc(-c2ccc(F)cc2)n1 [BAA-307, 2-((2-(4-fluorophenyl)-6-methylpyrimidin-4-yl)amino)-N-(3-hydroxy-2,6-dimethylphenyl)thiazole-5-carboxamide] | 50 to 1000 nM | Y (>20 fold) | > 11000 nM | Y (1000-5000 fold) | 500 to 5000 nM |  |  |  |
| Cc1ccc(O)c(C)c1NC(=O)c1cnc(Nc2ncnc3sccc23)s1 [BAA-447, N-(3-hydroxy-2,6-dimethylphenyl)-2-(thieno[2,3-d]pyrimidin-4-ylamino)thiazole-5-carboxamide] |  | Y (>20 fold) |  |  | > 5000 nM | < 50 nM | 1000 to 11000 nM | X (100-<1000 fold) |
| Cc1cn(-c2cccnc2)nc1Nc1ncc(C(=O)Nc2c(C)ccc(O)c2C)s1 [BAA-371, N-(3-hydroxy-2,6-dimethylphenyl)-2-((4-methyl-1-(pyridin-3-yl)-1H-pyrazol-3-yl)amino)thiazole-5-carboxamide] | < 50 nM | Y (>20 fold) | 1000 to 11000 nM | X (100-<1000 fold) | > 5000 nM |  |  |  |
